Measured values taken from patent US10154992B2, “Compounds and methods for treating HIV infection” (THE REGENTS OF THE UNIVERSITY OF CALIFORNIA, priority 2016, dated 2018).

Columns and labels:
[1] = MTT cell viability run in parallel with the Tat-hybrid assay; assay type: cell-based; details: human, Tat-hybrid reporter cell lines (HeLa); Table 5; read-out: Tat hybrid TC50
Experimental: (§1) Cells were counted and plated into white 384-well or 96-well cell-culture treated assay plates and compounds were added. After 48 hours, the cells were prepared for luminescence assays that were performed on a plate reader (Tecan Evolution or MD Analyst). The cytotoxicity of each compound was determined in parallel via MTT-based cell viability assays.
as §1, with “Tat hybrid reporter assay. […] Previously characterized thienopyridines and diaminoacridine were used as controls. Cells” for “Cells”, “384-well” for “384-well or 96-well”, “lumincescence” for “luminescence”, “assays. […]” for “assays.”

[2] = system: Tat-hybrid reporter cell lines (HeLa); experiment: as above; assay type: cell-based; details: Table 6; at 50,000 nM
Experimental: as §1
as §1, with “Tat hybrid reporter assay. […] Previously characterized thienopyridines and diaminoacridine were used as controls. Cells” for “Cells”, “384-well” for “384-well or 96-well”, “lumincescence” for “luminescence”, “assays. […]” for “assays.”

Structure (SMILES)	CC50 at 48 h [1]	Tat hybrid cell viability at 50,000 nM [2]
NC(=O)c1sc2cncc(N3CCOCC3)c2c1N	< 40 µM	–
NC(=O)c1cccc(-c2cncc3sc(C(N)=O)c(N)c23)c1	< 40 µM	–
CN(Cc1cccs1)c1cncc2sc(C(N)=O)c(N)c12	< 40 µM	–
Cc1cccc(N2CCN(c3cncc4sc(C(N)=O)c(N)c34)CC2)n1	< 40 µM	–
Cn1cc(CC(=O)N2CCN(c3cncc4sc(C(N)=O)c(N)c34)CC2)c2ccccc21	< 40 µM	–
NC(=O)c1sc2cncc(N3CCN(c4ccccc4O)CC3)c2c1N	< 40 µM	–
CC(C)c1n[nH]c2c1CN(c1cncc3sc(C(N)=O)c(N)c13)CC2	< 40 µM	–
NC(=O)c1sc2cncc(N3CCCC(c4nc5ccccc5o4)C3)c2c1N (stereo not drawn)	< 40 µM	–
NC(=O)c1sc2cncc(-c3ccncc3)c2c1N	> 40 µM	–
CN(C=O)c1ccc(C(=O)N2CCN(c3cncc4sc(C(N)=O)c(N)c34)CC2)cc1	< 40 µM	–
Cc1ccc(C(=O)N2CCN(c3cncc4sc(C(N)=O)c(N)c34)CC2)cn1	< 40 µM	–
COc1ccc(C(=O)N2CCN(c3cncc4sc(C(N)=O)c(N)c34)CC2)cc1F	< 40 µM	–
NC(=O)c1sc2cncc(-c3cncc4ccccc34)c2c1N	> 40 µM	–
NC(=O)c1sc2cncc(-c3cccc(-c4ccccc4)c3)c2c1N	< 40 µM	–
CC(=O)N1CCN(c2cncc3sc(C(N)=O)cc23)CC1	> 40 µM	–
CN1CCN(c2cncc3sc(C(N)=O)c(N)c23)CC1	< 40 µM	–
CS(=O)(=O)c1ccc(C(=O)N2CCN(c3cncc4sc(C(N)=O)c(N)c34)CC2)cc1	< 40 µM	–
Cc1noc(C)c1C(=O)N1CCN(c2cncc3sc(C(N)=O)c(N)c23)CC1	< 40 µM	–
COc1cc(C(=O)N2CCN(c3cncc4sc(C(N)=O)c(N)c34)CC2)ccc1C	< 40 µM	–
NC(=O)c1sc2cncc(-c3cccc4cccnc34)c2c1N	> 40 µM	–
NC(=O)c1sc2cncc(Cl)c2c1N	< 40 µM	–
C=CCN(CC=C)C(=O)c1sc2nc(C)c(Cl)c(C)c2c1N	–	X (X = >60%)
COc1ccc(C(=O)c2sc3nc(C)c(C)c(C)c3c2N)cc1OC	–	X (X = >60%)

Structure (SMILES)	CC50 at 48 h [1]	Tat hybrid cell viability at 50,000 nM [2]
Cc1cc(C)c2c(N)c(C(=O)NCC(=O)O)sc2n1	–	X (X = >60%)
NC(=O)c1sc2nc(C34CC5CC(CC(C5)C3)C4)ccc2c1N	–	X (X = >60%)
NC(=O)c1sc2nc3c(cc2c1N)C(=O)CCC3	–	X (X = >60%)
NC(=O)c1sc2[nH]c(=O)c(C(=O)O)cc2c1N	–	X (X = >60%)
NC(=O)c1sc2nc(-c3ccc4c(c3)OCCO4)cc(C(F)(F)F)c2c1N	–	X (X = >60%)
Cc1nc2sc(C(=O)c3ccccc3)c(N)c2c(C)c1C	–	X (X = >60%)
NC(=O)c1sc2nc(-c3ccccc3)ccc2c1N	–	X (X = >60%)
CN1CCc2nc3sc(C(N)=O)c(N)c3cc2C1	–	X (X = >60%)
Cc1cc(NC(=O)c2sc3nc(C)c(C)c(C)c3c2N)no1	–	X (X = >60%)
NC(=O)c1sc2nc3c(cc2c1N)CCCC3	–	X (X = >60%)
Cc1nc2sc(C(=O)c3ccc(Cl)cc3)c(N)c2c(C)c1C	–	X (X = >60%)
COCc1cc(C)nc2sc(C(=O)Nc3ccc(C(C)=O)cc3)c(N)c12	–	X (X = >60%)
CN(C)c1ccnc2sc(C(=O)NCc3ccccc3)c(N)c12	–	Y (Y = 30-60%)
NC(=O)c1sc2nc(C3CC3)cc(-c3ccc(Cl)cc3)c2c1N	–	Y (Y = 30-60%)
NC(=O)c1sc2nc(-c3ccccc3)cc(-c3ccccc3)c2c1N	–	Tat hybrid % inhibition at 5,000 nM: Z Tat hybrid cell viability at 50,000 nM: Z U1% inhibition at 10,000 nm: Z (Z = <30%)
Cc1ccc(-c2cc(-c3ccc(Cl)cc3)c3c(N)c(C(N)=O)sc3n2)cc1	–	Tat hybrid % inhibition at 5,000 nM: Z Tat hybrid cell viability at 50,000 nM: Z U1% inhibition at 10,000 nm: Z (Z = <30%)
Cc1ccc2nc3sc(C(N)=O)c(N)c3cc2c1	–	X (X = >60%)
CCc1ccc2nc3sc(C(N)=O)c(N)c3cc2c1	–	X (X = >60%)
COc1ccc(-c2c(C(=O)Nc3ccccc3)c(C)nc3sc(C(N)=O)c(N)c23)cc1	–	X (X = >60%)
Cc1cc(C)c2cc3c(N)c(C(N)=O)sc3nc2c1	–	Z (Z = <30%)
NC(=O)c1sc2nc(C(F)F)cc(-c3ccco3)c2c1N	–	Y (Y = 30-60%)
NC(=O)c1sc2nc3c(cc2c1N)CCCCC3	–	X (X = >60%)
